# Values quoted from earlier work in PubChem BioAssay AID1259409 (Chemical Carcinogenesis Research Information System (CCRIS), 2018).
# Tested on: rodent chemically induced tumor inhibition, incidence and multiplicity
# Assay: CCRIS tumor inhibitor studies
# Details: Route [Inhibitor]: ORAL, Species: RAT
smiles,measurement,setting,value
C=CC1=C(C)C2=CC3=NC(=C(CC(=O)O)C4=NC(=C(C)C4=C(O)O)C=c4[nH]c(c(C)c4CC)=CC1=N2)C(CCC(=O)O)C3C (stereo not given),"tumour outcome (control, treated, inhibition, significance)","Carcinogen: 1,2-DIMETHYLHYDRAZINE [540-73-8], Dose [Inhibitor]: 0, 0.001% (W/V BASED ON TOTAL CHLORINS) IN DRINKING WATER BEGINNING 1 WK POST CARCINOGEN TREATMENT FOR THE DURATION STUD, Strain/Sex: F344/MALE, Target Tissue: Type of Lesion: COLON: TUMOR, Dose [Carcinogen]: 20 MG/KG FOR FIRST 5 WK (STUDY DURATION: 52 WK), Promoter: NONE","20/23 (87%), 18/20 (90%), -3.4%, not significant"
same,"tumour outcome (control, treated, inhibition, significance)","Carcinogen: 1,2-DIMETHYLHYDRAZINE [540-73-8], Dose [Inhibitor]: 0, 0.001% (W/V BASED ON TOTAL CHLORINS) IN DRINKING WATER BEGINNING 1 WK POST CARCINOGEN TREATMENT FOR THE DURATION STUD, Strain/Sex: F344/MALE, Target Tissue: Type of Lesion: SMALL INTESTINE: TUMOR, Dose [Carcinogen]: 20 MG/KG BW/WK FOR FIRST 5 WK (STUDY DURATION: 52 WK), Promoter: NONE","12/23 (52%), 6/20 (30%), 42%, not significant"
same,"tumour outcome (control, treated, inhibition, significance)","Carcinogen: 1,2-DIMETHYLHYDRAZINE [540-73-8], Dose [Inhibitor]: 0, 0.01% (W/V BASED ON TOTAL CHLORINS) IN DRINKING WATER BEGINNING 1 WK POST CARCINOGEN TREATMENT FOR THE DURATION STUDY, Strain/Sex: F344/MALE, Target Tissue: Type of Lesion: SMALL INTESTINE: TUMOR, Dose [Carcinogen]: 20 MG/KG BW/WK FOR FIRST 5 WK (STUDY DURATION: 52 WK), Promoter: NONE","12/23 (52%), 11/20 (55%), -6%, not significant"
same,"tumour outcome (control, treated, inhibition, significance)","Carcinogen: 1,2-DIMETHYLHYDRAZINE [540-73-8], Dose [Inhibitor]: 0, 0.1% (W/V BASED ON TOTAL CHLORINS) IN DRINKING WATER BEGINNING 1 WK POST CARCINOGEN TREATMENT FOR THE DURATION STUDY, Strain/Sex: F344/MALE, Target Tissue: Type of Lesion: SMALL INTESTINE: TUMOR, Dose [Carcinogen]: 20 MG/KG BW/WK FOR FIRST 5 WK (STUDY DURATION: 52 WK), Promoter: NONE","12/23 (52%), 5/20 (25%), 52%, not significant"
same,"tumour outcome (control, treated, inhibition, significance)","Carcinogen: 1,2-DIMETHYLHYDRAZINE [540-73-8], Strain/Sex: F344/MALE, Target Tissue: Type of Lesion: COLON: TUMOR, Dose [Carcinogen]: 20 MG/KG FOR FIRST 5 WK (STUDY DURATION: 52 WK), Promoter: NONE","20/23 (87%), 20/20 (100%), -15%, not significant"
same,"tumour outcome (control, treated, inhibition, significance)","Carcinogen: 2-AMINO-1-METHYL-6-PHENYL-1H-IMIDAZO[4,5-B]PYRID INE, 105650-23-5, Dose [Inhibitor]: 0, 1% IN THE DIET FOR 52 WK (STUDY DURATION: 52 WK), Strain/Sex: F344/FEMALE, Target Tissue: Type of Lesion: MAMMARY GLAND: ADENOCARCINOMA, Dose [Carcinogen]: 0.02% IN THE DIET FOR 52 WK, Promoter: NONE USED","8/20 (40%), 3/20 (15%), 63%, not significant"
same,"tumour outcome (control, treated, inhibition, significance)","Carcinogen: 2-AMINO-1-METHYL-6-PHENYL-1H-IMIDAZO[4,5-B]PYRID INE, 105650-23-5, Dose [Inhibitor]: 0, 1% IN THE DIET FOR 52 WK (STUDY DURATION: 52 WK), Strain/Sex: F344/FEMALE, Target Tissue: Type of Lesion: MAMMARY GLAND: FIBROADENOMA, Dose [Carcinogen]: 0.02% IN THE DIET FOR 52 WK, Promoter: NONE USED","2/20 (10%), 0/20 (0%), 100%, not significant"
same,"tumour outcome (control, treated, inhibition, significance)","Carcinogen: 2-AMINO-3-METHYLIMIDAZO[4,5-F]QUINOLINE [76180-96-6], Dose [Inhibitor]: 0, 0.001% (W/V BASED ON TOTAL CHLORINS) IN DRINKING WATER BEGINNING 1 WK POST CARCINOGEN TREATMENT FOR THE DURATION STUD, Strain/Sex: F344/MALE, Target Tissue: Type of Lesion: COLON: TUMOR, Dose [Carcinogen]: 0.03% IN DIET FOR FIRST 5 WK (STUDY DURATION: 52 WK), Promoter: NONE","2/22 (9%), 2/20 (10%), -11%, not significant"
same,"tumour outcome (control, treated, inhibition, significance)","Carcinogen: 2-AMINO-3-METHYLIMIDAZO[4,5-F]QUINOLINE [76180-96-6], Dose [Inhibitor]: 0, 0.001% (W/V BASED ON TOTAL CHLORINS) IN DRINKING WATER BEGINNING 1 WK POST CARCINOGEN TREATMENT FOR THE DURATION STUD, Strain/Sex: F344/MALE, Target Tissue: Type of Lesion: LIVER: TUMOR, Dose [Carcinogen]: 0.03% IN DIET FOR FIRST 5 WK (STUDY DURATION: 52 WK), Promoter: NONE","16/22 (73%), 12/20 (60%), 18%, not significant"
same,"tumour outcome (control, treated, inhibition, significance)","Carcinogen: 2-AMINO-3-METHYLIMIDAZO[4,5-F]QUINOLINE [76180-96-6], Dose [Inhibitor]: 0, 0.001% (W/V BASED ON TOTAL CHLORINS) IN DRINKING WATER BEGINNING 1 WK POST CARCINOGEN TREATMENT FOR THE DURATION STUD, Strain/Sex: F344/MALE, Target Tissue: Type of Lesion: SKIN: TUMOR, Dose [Carcinogen]: 0.03% IN DIET FOR FIRST 5 WK (STUDY DURATION: 52 WK), Promoter: NONE","7/22 (32%), 5/20 (25%), 22%, not significant"
same,outcome,"Carcinogen: 2-AMINO-3-METHYLIMIDAZO[4,5-F]QUINOLINE [76180-96-6], Dose [Inhibitor]: 0, 0.001% (W/V BASED ON TOTAL CHLORINS) IN DRINKING WATER BEGINNING 1 WK POST CARCINOGEN TREATMENT FOR THE DURATION STUD, Strain/Sex: F344/MALE, Target Tissue: Type of Lesion: SMALL INTESTINE: TUMOR, Dose [Carcinogen]: 0.03% IN DIET FOR FIRST 5 WK (STUDY DURATION: 52 WK), Promoter: NONE","0/22 (0%), 1/20 (5%), -%, not significant"
same,"tumour outcome (control, treated, inhibition, significance)","Carcinogen: 2-AMINO-3-METHYLIMIDAZO[4,5-F]QUINOLINE [76180-96-6], Dose [Inhibitor]: 0, 0.001% (W/V BASED ON TOTAL CHLORINS) IN DRINKING WATER BEGINNING 1 WK POST CARCINOGEN TREATMENT FOR THE DURATION STUD, Strain/Sex: F344/MALE, Target Tissue: Type of Lesion: ZYMBAL'S GLAND: TUMOR, Dose [Carcinogen]: 0.03% IN DIET FOR FIRST 5 WK (STUDY DURATION: 52 WK), Promoter: NONE","5/22 (23%), 3/20 (15%), 35%, not significant"
same,"tumour outcome (control, treated, inhibition, significance)","Carcinogen: 2-AMINO-3-METHYLIMIDAZO[4,5-F]QUINOLINE [76180-96-6], Dose [Inhibitor]: 0, 0.01% (W/V BASED ON TOTAL CHLORINS) IN DRINKING WATER BEGINNING 1 WK POST CARCINOGEN TREATMENT FOR THE DURATION STUDY, Strain/Sex: F344/MALE, Target Tissue: Type of Lesion: COLON: TUMOR, Dose [Carcinogen]: 0.03% IN DIET FOR FIRST 5 WK (STUDY DURATION: 52 WK), Promoter: NONE","2/22 (9%), 2/20 (10%), -11%, not significant"
same,"tumour outcome (control, treated, inhibition, significance)","Carcinogen: 2-AMINO-3-METHYLIMIDAZO[4,5-F]QUINOLINE [76180-96-6], Dose [Inhibitor]: 0, 0.01% (W/V BASED ON TOTAL CHLORINS) IN DRINKING WATER BEGINNING 1 WK POST CARCINOGEN TREATMENT FOR THE DURATION STUDY, Strain/Sex: F344/MALE, Target Tissue: Type of Lesion: LIVER: TUMOR, Dose [Carcinogen]: 0.03% IN DIET FOR FIRST 5 WK (STUDY DURATION: 52 WK), Promoter: NONE","16/22 (73%), 10/20 (50%), 31.5%, not significant"
same,"tumour outcome (control, treated, inhibition, significance)","Carcinogen: 2-AMINO-3-METHYLIMIDAZO[4,5-F]QUINOLINE [76180-96-6], Dose [Inhibitor]: 0, 0.01% (W/V BASED ON TOTAL CHLORINS) IN DRINKING WATER BEGINNING 1 WK POST CARCINOGEN TREATMENT FOR THE DURATION STUDY, Strain/Sex: F344/MALE, Target Tissue: Type of Lesion: SKIN: TUMOR, Dose [Carcinogen]: 0.03% IN DIET FOR FIRST 5 WK (STUDY DURATION: 52 WK), Promoter: NONE","7/22 (32%), 7/20 (35%), -9%, not significant"
